Laboratory results taken from patent EP1503771B1, “SEDATIVE MATERIALS AND TREATMENTS” (University of Strathclyde, priority 2002, dated 2003).
Marks after values point to notes of the source that are not given here.

What was measured:
mice [1] = test: sodium thiopental-induced sleeping time; assay type: in vivo
Method: The effect of the active components in fraction H of Table 3 (ACN 50%, 23-27) and that of the aqueous remaining solution (Table 3) were tested in mice by i.p. administration. The doses were 2 mg per mouse for fraction H and 5 mg per mouse for the aqueous remaining solution fraction B. A small amount of conventional anesthetic (30 mg/kg of thiopental sodium - Biochemie, GmbH, Kundl, Austria) was used to induce a slight sleeping condition in the mice which were monitored to detect any possible enhancement of the sleeping condition by the previous injection of the novel compounds.
Median (interquartile range) of sleeping time of mice given a sodium thiopental i.p. administration (30 mg/kg) 20 min after an i.p. injection of vehicle or 6-methylapigenin. The sleeping time was measured as the time spent between disappearance and reappearance of righting reflex. Table 8 - Effect in different behavioral tests of 6-methylapigenin (sedation tests)

BDZ-bs = test: GABA-shift of [3H]-FNZ displacement curves; assay type: binding; settings: for GABA-shift: [3H]-FNZ binding to cortical brain membranes in the presence or absence of 100 µM GABA, n= 3
male Swiss mice [2] = test: horizontal wire test (myorelaxation); assay type: in vivo
Method: (§1) In all in vivo tests male Swiss mice of 28-30 g were used. The animals were injected i.p. with vehicle, or a solution of the drug, or fraction, 20 min before the assay. The assays were performed in mice i.p. injected with an amount of each fraction equivalent to that obtained from 1 g of dry Valeriana wallichii powder (see Table 3), 20 min before the test. In the case of the remaining aqueous solution (see Figure 2) it was injected at the maximum tolerated dose which was equivalent to that obtained from only 12 mg of dry Valeriana wallichii powder. This low dosage explains the absence of activity recorded in Table 4.
(§2) The following tests were used: spontaneous ambulatory activity counts in an Opto-Varimex apparatus that optically detects and measures locomotor activity; the Hole-board, a well-known test to assay for the sedative behavior (6); and the horizontal wire test to detect myorelaxation as described in detail in the literature (7).
(§3) Mean ±SEM of locomotor activity registered during 5 min session in an Opto-Varimex apparatus and performance of mice in the holeboard test. Wire test was performed after two trials and was registered the number of animals grasped the wire for 3 seconds. Vehicle or 6-methylapigenin were ip administered 20 min before tests. No significant differences were observed using the Student's t test at p>0.05. Table 9 - Anxiolytic effect of 6-methylapigenin measured in the plus-maze test

male Swiss mice [3] = test: Hole-board test (sedation); assay type: in vivo; settings: for Hole-board test N° of Head- dips / Hole-board test N° of rearings / Hole-board test Time head dipping: mice
male Swiss mice [4] = test: spontaneous locomotor activity (Opto-Varimex apparatus); assay type: in vivo; settings: for Locomotor Activity Total / Locomotor Activity ambulatory: 4 mg/kg, decrement relative to vehicle values; for Locomotor Total activity: ambulatory locomotor activity
Method: as §1, §2, §3

[5] = tested on: BDZ-bs (benzodiazepine binding site in GABAA brain receptor); test: BDZ-bs binding assay ([3H]-FNZ binding to cerebral cortical membranes); design: species or system rat
Method: In vitro binding assays were carried out with various receptors as well as in vivo tests for sedative activity on the various fractions A-K recovered in Example 1 using the known procedures described in detail in the literature for the following receptors: BDZ-bs (benzodiazepine binding site in GABAA brain receptor) (1); 5-hydroxytriptamine-type 1A (5HT1A) (2); 5HT2 (3); AMPA glutamatergic (4); adenosine 1 (5) . In vivo sedation activity was measured by the Hole-board test (6).
The presence of BDZ-bs ligands in the fractions obtained at the end of the preparative fractionation scheme described in Figure 2 was checked by the BDZ-bs binding assay as described in Example 2.
No BDZ-bs ligands were found in the eluates obtained with 20 %, 30 % and 80 % ACN, but they were present in those obtained with 40 % and 50 % ACN. The BDZ-bs ligands distribution obtained is shown in Figure 3 in which the percentage of binding inhibition of [^3H]-FNZ to rat cerebral cortical membranes (averages of duplicated measurements), is shown for 0.05 mL aliquots of the indicated fractions. (Note: Fractions 1-5, 6-10 and 28-32 were collected in bulk; 40 % and 50 % eluates were collected as separate 100 mL fractions. The arrows inside the graph indicate the pools made). […]

mice [6] = test: elevated plus-maze test (anxiolysis); assay type: in vivo; settings: for % open arm entries / % time spent in open arms / arm entries: mice, mean ±SEM
Text: Anti-anxiety as discussed in the present application is based on the fear that mice have for open spaces i.e. the elevated plus-maze assay.

[7] = mice, 1 mg/kg i.p. 20 min before sodium thiopental 30mg/kg i.p. (Table 20)
[8] = 4 mg/kg, decrement relative to vehicle values
[9] = mice, 4 mg/kg i.p. 20 min before sodium thiopental 30 mg/kg i.p. (Table 10)
[10] = mice, 9 mg/kg i.p. 20 min before sodium thiopental 30 mg/kg i.p. (Table 10)
[11] = mice, hesperidin 2 mg/kg i.p. 20 min before sodium thiopental 30mg/kg i.p. (Table 20)
[12] = 10 mg/kg ip 20 min before test, mean ±SEM
[13] = 10 mg/kg ip 20 min before test, 5 min session, mean ±SEM
[14] = 0.3 mg/kg ip 20 min before test

Question: How did the “Sleeping time Median” value (mice [1]; [7]) turn out when O=c1cc(-c2ccccc2)oc2cc(O)cc(O)c12 [Chrysin, reference compound] was run?
Answer: 0 min

Question: Which GABA-shift (BDZ-bs) does the source give for CN1C(=O)CN=C(c2ccccc2)c2cc(Cl)ccc21 [diazepam, reference compound] here?
Answer: 2.00 ± 0.10

Question: Which results are given for COc1ccc([C@@H]2CC(=O)c3c(O)cc(O[C@@H]4O[C@H](CO[C@@H]5O[C@@H](C)[C@H](O)[C@@H](O)[C@H]5O)[C@@H](O)[C@H](O)[C@H]4O)cc3O2)cc1O [Citrus hesperidin, hesperidin, reference compound]?
Answer: Wire (male Swiss mice [2]; 4 mg/kg): 0 percentage; Hole-board test N° of Head- dips (male Swiss mice [3]; [8]): -40 percentage; Hole-board test N° of rearings (male Swiss mice [3]; [8]): -22 percentage; Hole-board test Time head dipping (male Swiss mice [3]; [8]): -44 percentage; Locomotor Activity Total (male Swiss mice [4]): -31 percentage; Locomotor Activity ambulatory (male Swiss mice [4]): -30 percentage; activity relative to the natural isomer from valeriana (mice [1]; estimated from Table 10, sleeping time in mice): approximately 60%; Sleeping time Median (s) (mice [1]; [9]): 660* s; Sleeping time Median (s) (mice [1]; [10]): 1440** s

Question: How did the Wire (male Swiss mice [2]; 4 mg/kg) turn out when COc1ccc([C@@H]2CC(=O)c3c(O)cc(O[C@@H]4O[C@H](CO[C@@H]5O[C@@H](C)[C@H](O)[C@@H](O)[C@H]5O)[C@@H](O)[C@H](O)[C@H]4O)cc3O2)cc1O [Valeriana hesperidin, Hesperetin 7-rhamnoglucoside; 4H-1-Benzopyran-4-one, 7-[[6-O-(6-deoxy-alpha-L-mannopyranosyl)-beta-D-glucopyranosyl]oxy]-2,3-dihydro-5-hydroxy-2-(3-hydroxy-4-methoxyphenyl)-, (S)-] was run?
Answer: 0 percentage

Question: And the “Hole-board test N° of Head- dips” value (male Swiss mice [3]; [8])?
Answer: -74** percentage

Question: And the “Hole-board test N° of rearings” value (male Swiss mice [3]; [8])?
Answer: -58** percentage

Question: What about the “Hole-board test Time head dipping” value (male Swiss mice [3]; [8]) of the same compound?
Answer: -81## percentage

Question: What about the “Locomotor Activity Total” value (male Swiss mice [4]) of the same compound?
Answer: -55** percentage

Question: What about the “Locomotor Activity ambulatory” value (male Swiss mice [4]) of the same compound?
Answer: -58** percentage

Question: What about the “Sleeping time Median” value (mice [1]; mice, 1 mg/kg i.p. 20 min before sodium thiopental 30 mg/kg i.p. (Table 10)) of the same compound?
Answer: 0.583 min

Question: And the “Sleeping time Median (s)” value (mice [1]; mice, 2 mg/kg i.p. 20 min before sodium thiopental 30 mg/kg i.p. (Table 10))?
Answer: 197* s

Question: What about the “Sleeping time Median (s)” value (mice [1]; [9]) of the same compound?
Answer: 1290** s

Question: What about the “Sleeping time Median (s)” value (mice [1]; [10]) of the same compound?
Answer: 1800** s

Question: And the “Sleeping time Median (s)” value (mice [1]; mice, hesperidin 2 mg/kg i.p. 20 min before sodium thiopental 30 mg/kg i.p. (Table 12))?
Answer: 179* s

Question: What about the “Sleeping time Median (s)” value (mice [1]; mice, i.p., Dose 3 (unit not given), 20 min before sodium thiopental 30 mg/kg i.p.) of the same compound?
Answer: 500** s

Question: For CC1=C2[C@H](/C=C(\C)C(=O)O)CC[C@@H](C)[C@H]2CC1 [Valerenic acid, reference compound], which “Sleeping time Median” value (mice [1]; mice, valerenic acid 5 mg/kg (Table 18)) is on record?
Answer: 0 min

Question: And the “Sleeping time Median” value (mice [1]; mice, valerenic acid 5 mg/kg i.p. 20 min before sodium thiopental 30 mg/kg i.p. (Table 17))?
Answer: 0 min

Question: And the “Sleeping time Median” value (mice [1]; mice, valerenic acid 15mg/kg i.p. 20 min before sodium thiopental 30 mg/kg i.p. (Table 17))?
Answer: 0 min

Question: How did the “Sleeping time Median” value (mice [1]; mice, 4 mg/kg (Table 13)) turn out when COc1ccc([C@@H]2CC(=O)c3c(O)cc(O[C@@H]4O[C@H](CO[C@@H]5O[C@@H](C)[C@H](O)[C@@H](O)[C@H]5O)[C@@H](O)[C@H](O)[C@H]4O)cc3O2)cc1O [Hesperidin] was run?
Answer: 20 min

Question: What about the “Sleeping time Median” value (mice [1]; [11]) of the same compound?
Answer: 3.5 min

Question: And the “Sleeping time Median (min)” value (mice [1]; [11])?
Answer: 3.5* min

Question: Which results are given for COc1ccc(-c2cc(=O)c3c(O)cc(O[C@@H]4O[C@H](CO[C@@H]5O[C@@H](C)[C@H](O)[C@@H](O)[C@H]5O)[C@@H](O)[C@H](O)[C@H]4O)cc3o2)cc1 [Linarin, 7-[[6-O-(6-deoxy-α-L-mannopyranosyl)-β-D-glucopyranosyl]oxy]-5-hydroxy-2-(4-methoxyphenyl)-4H-benzopyran-4-one]?
Answer: dose at which hypnotic activity is evident (mice [1]; estimated from Table 16): 7 mg/kg; Sleeping time Median (mice [1]; mice, 4 mg/kg i.p. 20 min before sodium thiopental 30 mg/kg i.p. (Table 16)): 0 min; Sleeping time Median (min) (mice [1]; mice, 7 mg/kg i.p. 20 min before sodium thiopental 30 mg/kg i.p. (Table 16)): 30** min; Sleeping time Median (min) (mice [1]; mice, 14 mg/kg i.p. 20 min before sodium thiopental 30 mg/kg i.p. (Table 16)): 30** min; Sleeping time Median (mice [1]; mice, linarin 4 mg/kg i.p. 20 min before sodium thiopental 30 mg/kg i.p. (Table 17)): 0 min

Question: With O=c1cc(-c2ccc(O)cc2)oc2cc(O)cc(O)c12 [Apigenin, reference compound] as the compound, how does the “Sleeping time Median” value (mice [1]; [7]) read?
Answer: 0 min

Question: And the “Sleeping time Median (min)” value (mice [1]; mice, 1 mg/kg i.p. 20 min before sodium thiopental 30mg/kg i.p. (Table 20), listed as apigenin)?
Answer: do not produce any sleeping time

Question: With Cc1c(O)cc2oc(-c3ccc(O)cc3)cc(=O)c2c1O (single isomer, unassigned) [6-methylapigenin] as the compound, how does the Wire (male Swiss mice [2]; 10 mg/kg ip, number of animals that grasped the wire for 3 seconds) read?
Answer: 5/5

Question: And the GABA-shift (BDZ-bs)?
Answer: 1.6-2.0

Question: And the “behaviour at the BDZ-bs from GABA-shift” value (BDZ-bs; presence or absence of 100 µM GABA)?
Answer: behaves as an agonist

Question: And the “Hole-board test N° of Head- dips” value (male Swiss mice [3]; [12])?
Answer: 7±0.5

Question: What about the “Hole-board test N° of rearings” value (male Swiss mice [3]; [12]) of the same compound?
Answer: 28±3

Question: And the “Hole-board test Time head dipping” value (male Swiss mice [3]; [12])?
Answer: 10±1

Question: And the sedative effects (male Swiss mice [3]; up to 10 mg/kg in mice)?
Answer: does not have sedative effects

Question: And the “Locomotor Total activity” value (male Swiss mice [4]; 0.3 mg/kg ip 20 min before test, 5 min session, mean ±SEM)?
Answer: 410±36

Question: And the “Locomotor Total activity” value (male Swiss mice [4]; 1 mg/kg ip 20 min before test, 5 min session, mean ±SEM)?
Answer: 463±64

Question: And the Ambulatory locomotor activity (male Swiss mice [4]; [13])?
Answer: 395±43

Question: And the “Total Locomotor Activity” value (male Swiss mice [4]; [13])?
Answer: 552±55

Question: What about the “Sleeping time Median” value (mice [1]; mice, 6-methylapigenin 1mg/kg (Table 18)) of the same compound?
Answer: 0 min

Question: What about the “Sleeping time Median” value (mice [1]; mice, 6-methylapigenin 1 mg/kg i.p. 20 min before sodium thiopental 30 mg/kg i.p. (Table 12)) of the same compound?
Answer: 0 min

Question: What about the “Sleeping time (min) median values” (mice [1]; mice, i.p., 1 mg/kg, 20 min before sodium thiopental 30 mg/kg i.p. (Table 7)) of the same compound?
Answer: 0 min

Question: And the “effect on sleeping time” value (mice [1]; up to 1 mg/kg, mice receiving a sub-hypnotic dose of thiopental)?
Answer: does not affect the sleeping time

Question: What about the “Scatchard analysis of saturation curves: type of interaction” value ([5]; [3H] FNZ saturation curves, decline in apparent affinity without changes in Bmax) of the same compound?
Answer: competitive interaction

Question: And the Ki ([5]; n= 5 (ligand 1), n= 3 (ligand 2))?
Answer: 500 ± 170 nM

Question: And the “anxiolytic properties in the plus-maze assay” value (mice [6]; dose of 1 mg/kg in mice)?
Answer: clear anxiolytic properties

Question: And the “% open arm entries” value (mice [6]; [14])?
Answer: 48±4%

Question: And the “% time spent in open arms” value (mice [6]; [14])?
Answer: 42±4%

Question: And the arm entries (mice [6]; [14])?
Answer: 17±2

Question: And the “% open arm entries” value (mice [6]; 1 mg/kg ip 20 min before test)?
Answer: 60±6 %

Question: What about the “% time spent in open arms” value (mice [6]; 1 mg/kg ip 20 min before test) of the same compound?
Answer: 58±5 %

Question: And the arm entries (mice [6]; 1 mg/kg ip 20 min before test)?
Answer: 14±2
